# Experimental data published in patent US11760775B2, “Steroids and protein-conjugates thereof” (Regeneron Pharmaceuticals, Inc., priority 2016, dated 2023).
# “And” between values parts separate entries of the source, which are not always exact repeats. Equal values may be shown once. Read-outs that look alike come from different tables or passages of the source.
# How the values were obtained:
# [1] = test system: glucocorticoid receptor (GR) activation in HEK293/MMTV-Luc cells; test: MMTV luciferase reporter bioassay in parental HEK293/MMTV-luc cells; assay type: cell-based, human; settings: 72 hrs of incubation
# Method: (§1) HEK293 cell line was first generated to stably express a luciferase reporter pGL4.36[luc2P/MMTV/Hygro] (Promega, #E136A), referred to herein as HEK293/MMTV-luc, and maintained in DMEM containing 10% FBS, NEAA, penicillin/streptomycin/L-glutamine, and 100 μg/mL hygromycin (complete media). […] The resulting cell line referred to herein as, HEK293/MMTV-luc/IL-2Rγ/IL7R, was maintained in complete media supplemented with 1 μg/mL puromycin, and 500m/mL G418 sulfate.
# (§2) For the bioassay, HEK293/MMTV-luc or HEK293/MMTV-luc/IL2Rγ/IL7R cells were seeded onto 96-well assay plates at 10,000 cells/well in complete media and incubated at 37° C. in 5% CO2 overnight. […] The concentrations were adjusted according to drug-to-antibody ratio for ncADCs and other techniques known to those of skill in the art. One well without any test article was also included as a control.
# (§3) Luciferase activity was measured after 6, 24, 48, and 72 hours of incubation in 37° C. at 5% CO2 on a Victor X instrument (Perkin Elmer). The results were analyzed using nonlinear regression (4-parameter logistics) with Prism 6 software (GraphPad) to obtain EC50 values. Fold activation was calculated by determining the ratio of the luciferase activity of each sample to that observed without any test article added
# [2] = test system: GR activation in 293/PRLR/GRE-Luc cells (HEK293/9xUAS-Luc2P/pBind-GR/PRLR-HA high cells); test: GR co-activator luciferase reporter cell based assay in 293/PRLR/GRE-Luc cells; design: species or system human
# Summary of the method: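 EC50 was derived from a 10-point, four-parameter logistic fit of One-Glo luminescence. The reporter is driven by Gal4UAS through GR ligand-binding domain fused to Gal4 DBD in PRLR-expressing 293 cells, after ADC internalization or free steroid exposure. Activation below 10% of the free-payload maximum counts as minimal.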
# [3] = test system: GR activation in 293/MMTV-Luc cells; test: Luciferase reporter assay in 293/MMTV-Luc cells (do not express PRLR); assay type: cell-based, human; settings: for GRE-Luc activation: 293/MMTV-Luc cells, 72 hours
# Excerpt: In a second example, a bioassay assessed both the efficacy of free steroids as well as any nonspecific activity by anti-PRLR-ncADCs.
# [4] = test system: glucocorticoid receptor (GR) activation in HEK293/MMTV-luc/IL-2Rγ/IL7R cells; test: IL2Rγ-ncADC bioassay, MMTV luciferase reporter in HEK293/MMTV-luc/IL2Rγ/IL7R cells; assay type: cell-based, human
# Method: as §1, §2, §3
# [5] = test system: GR activation in 293/GRE-Luc cells (293_PBind GR/UAS-Luc); test: Luciferase reporter assay in antigen negative 293/GRE-Luc cells; assay type: cell-based, human; settings: read-out: EC50 in 293/GRE-Luc; 72 hrs of incubation; antigen negative cells
# [6] = test system: human monocyte derived-DC; test: Ex vivo LPS-induced cytokine production in human monocyte derived DCs; assay type: cell-based; design: IL-6 / IL-8 / TNF-a / IL-12p70 / IL-1b: unit not given here
# Method: The complete-RPMI with IL4 and GM-CSF was changed every three days. […]
# (§4) Supernatants were collected into 96-well round bottom tissue culture plates 24 hours post-LPS challenge and stored at −20° C. until further analysis. Cytokine concentrations in the supernatants were measured using a Pro-inflammatory Panel 1 (mouse) multiplex immunoassay kit (MesoScale Discovery, Cat #K15048D) according to manufacturer's instructions or Pro-inflammatory Panel 1 (human) multiplex immunoassay kit (MesoScale Discovery, Cat #K15049D). In brief, 50 μL/well of calibrators and samples (diluted in Diluent 1:2) were added to the plates pre-coated with capture antibodies and incubated at room temperature while shaking at 700 rpm for 2 hours. The plates were then washed 3 times with 1×PBS containing 0.05% (w/v) Tween-20, followed by the addition of 25 μL of Detection Antibody Solution diluted in Diluent 45. After 2-hour incubation at room temperature while shaking, the plates were washed 3 times, and 150 μL of 2× Read Buffer was added to each well. Electrochemiluminescence was immediately read on a MSD Spector® instrument. Data analysis was performed using GraphPad Prism™ software. Statistical significance within the groups was determined by one-way Anova with Turkey's multiple comparison post-test and standard error of mean (SEM±) calculated.
# [7] = test system: LPS-induced cytokine release (TNF-α); test: Mouse model of LPS induced cytokine release (TNF-α in plasma); assay type: in vivo, C57BL/6j mice
# [8] = Pharmacokinetics of 4b and 6-I in mice (blood concentration-time); assay type: in vivo, C57BL/6j mice; settings: IP, 1 mg/Kg in male C57BL/6 mice; Mean
# CD11c+ splenic DCs = test: Ex vivo LPS-induced cytokine production in mouse splenic CD11c+ dendritic cells; assay type: cell-based, C57Bl/6 mice; design: TNF-a / IL-12p70 / IL-1b / IL-6 / KC-GRO: unit not given here
# Method: as §4
# [9] = 293/PRLR/GRE-Luc cells, 72 hours
# [10] = 6, 24, and 48 hours of incubation
# [11] = read-out: EC50 in 293/PRLR/GRE-Luc, 72 hrs of incubation
structure (smiles),measurement,setting,value
CCCC1O[C@@H]2C[C@H]3[C@@H]4CCC5=CC(=O)C=C[C@]5(C)[C@H]4[C@@H](O)C[C@]3(C)[C@]2(C(=O)COc2ccc(N)cc2)O1 (stereo in doubt) [Compound 11-5],Activation in HEK293/MMTV-Luc cells,[1],showed activation
same,Fold Activation,[2]; [9],Full
same,GRE-Luc activation,[2]; [9],full GRE-Luc activation
same,EC50,"[2]; Homo sapiens, HEK293, 72 h, read-out: EC50 of GRE-Luc activation",< 10 nM
same,GRE-Luc activation,[3],full GRE-Luc activation
same,EC50,"[3]; Homo sapiens, 72 h, read-out: EC50 of GRE-Luc activation",10 to 100 nM
same,GR activation,[4]; [10],partial activation
same,Fold Activation,[4]; 6 hours,Partial
same,Fold Activation,[4]; 24 hours,Partial
same,Maximum fold activation,[4]; 24 hrs of incubation,relatively lower levels of activation compared to budesonide
same,Fold Activation,[4]; 48 hours,Partial
same,Fold Activation,[4]; 72 hours,Full
same,GR activation,[4]; 72 hours of incubation,full activations
same,EC50,"[4]; Homo sapiens, HEK293, 6 h",> 100 nM
same,EC50,"[4]; Homo sapiens, HEK293, 24 h",> 100 nM
same,EC50,"[4]; Homo sapiens, HEK293, 48 h",10 to 100 nM
same,EC50,"[4]; Homo sapiens, HEK293, read-out: EC50 of GR activation",10 to 100 nM
same,EC50 potency class,[4]; at 24 hours,+ (+: >100 nM)
same,EC50 potency class,[4]; at 48 hours,++ (++: 10-100 nM)
"CCCC1O[C@@H]2C[C@H]3[C@@H]4CCC5=CC(=O)C=C[C@]5(C)[C@H]4[C@@H](O)C[C@]3(C)[C@]2(C(=O)CO)O1 (stereo partly drawn) [Budesonide, budesonide, reference compound]",Activation in HEK293/MMTV-Luc cells,[1],showed activation
same,GRE-Luc activation,[2]; [9],full GRE-Luc activation
same,EC50,"[2]; 293/PRLR/GRE-Luc cells, 72 hours, read-out: EC50",< 10 nM
same,EC50,"[2]; 293/PRLR/GRE-Luc cells, 72 hours, read-out: EC50 of GRE-Luc activation",< 10 nM
same,EC50,"[2]; 72 hours of incubation, read-out: HEK293/9xUAS-Luc2P/pBind-GR/PRLR-HA high cells EC50",< 10 nM
same,EC50,[2]; [11],5 to 10 nM
same,EC50,[2]; read-out: HEK293/9xUAS-Luc2P/pBind-GR/PRLR-HA high cells EC50,< 10 nM
same,GRE-Luc activation,[3],full GRE-Luc activation
same,EC50,[5],< 5 nM
"C[C@@H]1C[C@H]2[C@@H]3CCC4=CC(=O)C=C[C@]4(C)[C@@]3(F)[C@@H](O)C[C@]2(C)[C@@]1(O)C(=O)CO [Dexamethasone, dexamethasone, reference compound]",EC50,[2]; [11],< 5 nM
same,IL-1b,[6],0.625 ± 0.006
same,Pro-inflammatory cytokine production,[6]; Condition 1: entire 7-day conditioning period,significantly reduced pro-inflammatory cytokine production
same,IL-1b,"[6]; Condition 1, 10 nM + LPS",1.77 ± 0.11
same,IL-6,"[6]; Condition 1, 10 nM + LPS",687.45 ± 2.17
same,IL-8,"[6]; Condition 1, 10 nM + LPS",8789.98 ± 126.98
same,IL-12p70,"[6]; Condition 1, 10 nM + LPS",4.83 ± 0.05
same,TNF-a,"[6]; Condition 1, 10 nM + LPS",242.34 ± 10.75
same,IL-6,"[6]; Condition 1, 10 nM, no LPS",2.68 ± 0.03
same,IL-8,"[6]; Condition 1, 10 nM, no LPS",174.59 ± 0.68
same,IL-12p70,"[6]; Condition 1, 10 nM, no LPS",0.65 ± 0.02
same,TNF-a,"[6]; Condition 1, 10 nM, no LPS",2.32 ± 0.098
same,"Production of IL12p70, IL6 and TNF-α",[6]; Condition 2: conditioning of mature monocyte-derived DCs,"significantly decreased the production of IL12p70, IL6 and TNF-α"
same,IL-1b,"[6]; Condition 2, 10 nM + LPS",37.88 ± 1.90
same,IL-6,"[6]; Condition 2, 10 nM + LPS",5747.37 ± 234.08
same,IL-8,"[6]; Condition 2, 10 nM + LPS",3314.0 ± 37.86
same,IL-12p70,"[6]; Condition 2, 10 nM + LPS",6.32 ± 1.69
same,TNF-a,"[6]; Condition 2, 10 nM + LPS",994.92 ± 73.66
same,IL-1b,"[6]; Condition 2, 10 nM, no LPS",0.611 ± 0.003
same,IL-6,"[6]; Condition 2, 10 nM, no LPS",14.76 ± 0.267
same,IL-8,"[6]; Condition 2, 10 nM, no LPS",288.23 ± 6.02
same,IL-12p70,"[6]; Condition 2, 10 nM, no LPS",0.64 ± 0.03
same,TNF-a,"[6]; Condition 2, 10 nM, no LPS",1.73 ± 0.02
same,Inhibition of TNF-α production,"[7]; 5 mpk ip before LPS challenge, plasma at 2 hr time point",significantly inhibit TNF-α
same,TNF-a,"[7]; plasma 2 hr post LPS challenge, 5MPK ip (−2 h) prior to LPS, individual mice, listed as DEX",644.3 pg/mL and 508.5 pg/mL and 487.1 pg/mL
same,AUCINF,[8],562 ng·h/mL
same,AUClast,[8],545 ng·h/mL
same,Cmax,[8],231 ng/mL
same,IL-1b,CD11c+ splenic DCs; 10 nM + LPS,34.76 ± 4.33
same,IL-6,CD11c+ splenic DCs; 10 nM + LPS,714.89 ± 77.13
same,IL-12p70,CD11c+ splenic DCs; 10 nM + LPS,30.41 ± 3.22
same,KC-GRO,CD11c+ splenic DCs; 10 nM + LPS,399.40 ± 49.75
same,TNF-a,CD11c+ splenic DCs; 10 nM + LPS,2496.27 ± 415.75
same,LPS-induced cytokine responses in CD11c+ DCs,CD11c+ splenic DCs; 10 nM and 100 nM for 24 hours before LPS 10 ng/mL,significantly decreased LPS-induced cytokine responses
same,IL-1b,"CD11c+ splenic DCs; 10 nM, no LPS",6.299 ± 0.33
same,IL-6,"CD11c+ splenic DCs; 10 nM, no LPS",98.93 ± 8.98
same,IL-12p70,"CD11c+ splenic DCs; 10 nM, no LPS",8.55 ± 1.08
same,KC-GRO,"CD11c+ splenic DCs; 10 nM, no LPS",75.75 ± 8.03
same,TNF-a,"CD11c+ splenic DCs; 10 nM, no LPS",0 ± 0
same,IL-1b,CD11c+ splenic DCs; 100 nM + LPS,10.58 ± 0.88
same,IL-6,CD11c+ splenic DCs; 100 nM + LPS,303.48 ± 11.37
same,IL-12p70,CD11c+ splenic DCs; 100 nM + LPS,9.29 ± 3.28
same,KC-GRO,CD11c+ splenic DCs; 100 nM + LPS,233.49 ± 18.48
same,TNF-a,CD11c+ splenic DCs; 100 nM + LPS,405.49 ± 70.23
same,IL-1b,"CD11c+ splenic DCs; 100 nM, no LPS",5.25 ± 0.12
same,IL-6,"CD11c+ splenic DCs; 100 nM, no LPS",55.07 ± 1.76
same,IL-12p70,"CD11c+ splenic DCs; 100 nM, no LPS",6.05 ± 1.13
same,KC-GRO,"CD11c+ splenic DCs; 100 nM, no LPS",65.99 ± 2.75
same,TNF-a,"CD11c+ splenic DCs; 100 nM, no LPS",0 ± 0
same,EC50,[5],< 5 nM
